In patent US20180369327A1, “METHOD FOR TREATING OR PREVENTING OSTEOARTHRITIS” (Dong-A University Research Foundation for Industry-Academy …, priority 2017, published 2018):

Experiments:
[1] = tested on: rat articular chondrocytes; test: DNA hypoploidy / cell cycle analysis by flow cytometry (apoptosis); format: cell-based; conditions: 30 μM cilostazol, 1.5 mM oleate; n=4
Procedure: Rat articular chondrocytes for primary culture were isolated from knee joint cartilage slices by enzymatic digestion for 1 h with 0.2% type II collagenase (381 units/mg) in DMEM. After the isolated cells were collected by brief centrifugation, they were resuspended in DMEM supplemented with 10% (v/v) FBS, […] streptomycin and 50 units/ml penicillin (Gibco). The cells were plated on culture dishes at a density of 5×10^4 cells/cm^2. The medium was replaced every 2 days, and they reached confluence after approximately 5 days in culture. In each experiment, the cells from three animals were pooled and analyzed three times. FFA were dissolved in absolute ethanol at a concentration of 500 mM and diluted to final concentrations of FFAs with the appropriate concentration of 1% (w/v) FFA-free BSA. Controls were incubated with equal concentrations of FFA-free BSA containing ethanol. […] Cells were washed twice with PBS, and fixed with cold 70% ethanol at 4° C. overnight. The fixed cells were pelleted and ethanol was removed by washing twice with PBS containing 1% bovine serum albumin (BSA). The cells were resuspended in 1 ml of PBS containing 11 Kunitz U/ml RNase A, incubated at 4° C. for 30 min and washed once with BSAPBS. Cells were resuspended in PI solution (50 μg/ml) and incubated at 37° C. for 30 min in dark. […]

FSP27 = test: Western blot of FSP27 protein in articular chondrocytes; format: cell-based, rat; conditions: 30 μM cilostazol, 1.5 mM oleate; n=4
Procedure: Rat articular chondrocytes for primary culture were isolated from knee joint cartilage slices by enzymatic digestion for 1 h with 0.2% type II collagenase (381 units/mg) in DMEM. After the isolated cells were collected by brief centrifugation, they were resuspended in DMEM supplemented with 10% (v/v) FBS, […] streptomycin and 50 units/ml penicillin (Gibco). The cells were plated on culture dishes at a density of 5×10^4 cells/cm^2. The medium was replaced every 2 days, and they reached confluence after approximately 5 days in culture. In each experiment, the cells from three animals were pooled and analyzed three times. FFA were dissolved in absolute ethanol at a concentration of 500 mM and diluted to final concentrations of FFAs with the appropriate concentration of 1% (w/v) FFA-free BSA. Controls were incubated with equal concentrations of FFA-free BSA containing ethanol. […] Cell (2×10^6) were washed twice with ice-cold PBS. Cells were resuspended in lysis buffer [200 ll of icecold solubilizing buffer (300 mM NaCl, 50 mM Tris-Cl (pH 7.6), 0.5% Triton X-100, protease inhibitor cocktail)] and incubated at 4° C. for 30 min. The lysates were centrifuged at 14,000 rpm for 20 min at 4° C. The protein concentrations of the cell lysates were measured with the Bradford protein assay reagent (Bio-Rad). Then, 50 μg of proteins was loaded onto 15 SDS-PAGE. The separated proteins were transferred to nitrocellulose membranes (Amersham Pharmacia Biotech, Piscataway, N.J., USA) and probed with each antibody. Immunostaining with the antibodies was carried out using the Super Signal West Pico enhanced chemiluminescence substrate and detected with LAS-3000PLUS.

[2] = tested on: rat articular chondrocytes; test: Total cytosol FFA content measurement; format: cell-based; conditions: cells treated with 1.6 mM palmitate and 0.4 mM oleate; n=4
Procedure: Cell were collected after treatment with trypsin (0.2% trypsin, 0.02% EDTA and 0.2% glucose in PBS) and pelleted by centrifugation (200×g for 5 min at 4° C.). Cell pellet was resuspended in ice-cold hypotonic lysis medium containing 20 mM Tris-HCl, pH 7.4 and 1 mM EDTA. Cells were homogenized with a Dounce homogenizer and then centrifuged (800×g for 5 min at 4° C.). The post-nuclear supernatant fraction was ultra-centrifuged ([…] for 5 min at 4° C.) using Beckman Table-top ultracentrifuge. LD fraction with the distinct white band on the preparation was removed with a pipetman and LD-free cytosol was used for FFA measurement. Cytosol FFA levels were measured using a commercial free fatty acid quantification kit from Abcam (ab65341).

[3] = tested on: HFD-induced cartilage destruction; test: HFD-induced OA mouse model, histologic examination of cartilage; format: in vivo; conditions: mice fed HFD 25 weeks, cilostazol 30 mg/kg/day orally for the last 10 weeks; n=10
Procedure: All procedures for animal study were approved by the Committee on Animal Investigations at Dong-A University (DIACUC-15-12). Seven-week-old male C57BL/6 mice were obtained from Samtoko (Osan, Korea). Mice were maintained in a temperature-controlled room (22° C.) on a 12:12 h light-dark cycle and free access to water and food. HFD-induced OA mouse model. Sixty mice were fed a normal chow diet for one week and then mice were fed an HFD or a SD for 25 weeks. Ten mice from each diet were used histologically examine the effect of high fat diet. Forty mice were used to examine the effect of cilostazol. Mice fed a SD or HFD for 15 weeks were orally administered cilostazol at concentrations of 30 mg/kg/day for additional 10 weeks. SD+vehicle mice (n=10) were fed a SD and received DMSO. SD+cilostazol mice (n=10) were fed a SD and received cilostazol. HFD+vehicle mice (n=10) were fed a HFD and received DMSO. HFD+cilostazol mice (n=10) were fed a HFD and received cilostazol. Tissue preparation and histologic examination. Animals were killed by ether inhalation. Whole knee joints were removed by dissection, fixed in PBS (pH 7.4) containing 4% paraformaldehyde, decalcified in 12.5% EDTA, dehydrated, and embedded in paraffin blocks. Five-micrometer microsections were prepared and stained with hematoxylin and eosin and with Safranin O-fast green.

O=C1CCc2cc(OCCCCc3nnnn3C3CCCCC3)ccc2N1 [cilostazol]
effect on oleate-induced apoptosis (histograms) [1]: prevented 1.5 mM oleate-induced apoptosis
effect on oleate-induced downregulation of FSP27 (FSP27): prevented the 1.5 mM oleate-induced downregulation of FSP27
FFA level in the cytosol [2]: significantly decreased the FFA level in the cytosol
HFD-induced cartilage destruction [3]: markedly prevented the HFD-induced cartilage destruction
